# Experimental data reported in the supplement of paper PMC10702517.
# ± gives the standard deviation.
# Assay: chemical recovery from spiked human plasma; higher = better extraction
# Conditions: pooled human plasma
# [1] = extraction method: SPE only (HLB 96-well)
# [2] = extraction method: solvent precipitation (ACN + hexane)
# [3] = extraction method: PES+SPE (3 d PDMS equilibration then HLB SPE)
# [4] = extraction method: SPE only (HLB 96-well), PES comparison experiment
Compound,chemical recovery [1] [%],chemical recovery [2] [%],chemical recovery [3] [%],chemical recovery [4] [%]
"Cc1cc(C)nc(N)n1 [2-Amino-4,6-dimethylpyrimidine]",2.25 ± 2.4,,,
CCN(CC)C(=O)c1cccc(C)c1 [DEET],30.1 ± 3,52.6 ± 4.4,,
CC(C)CCCCOC(=O)c1ccccc1C(=O)OCCCCC(C)C [Diisoheptyl-phthalate],12.9 ± 3.1,103 ± 14,,
CN(C)c1ccncc1 [4-(Dimethylamino)pyridine],2.53 ± 2.1,60.5 ± 4,0.689 ± 0.15,
"CC(C)c1ccc2cc(C(C)C)ccc2c1 [2,6-Diisopropylnaphthalene]",,,,16.8 ± 6.9
O=C(O)C(F)(F)C(F)(F)C(F)(F)C(F)(F)C(F)(F)C(F)(F)C(F)(F)C(F)(F)F [Perfluorononanoic-acid],8.32 ± 1.8,66.3 ± 5.1,,
N#Cc1c(O)c(Cl)c(Cl)c(C#N)c1Cl [Chlorothalonil-4-hydroxy],32.4 ± 3,,37.1 ± 5.2,33.8 ± 7.8
C1CCC2CCCCC2C1 (configuration not stated) [Decahydronaphthalene],,,,3.14 ± 1.3
CCCCCCS(=O)(=O)O [1-Hexanesulfonic-acid],30.6 ± 4.2,74.2 ± 8.3,31.6 ± 3.8,
CSC1=N[C@@](C)(c2ccccc2)C(=O)N1Nc1ccccc1 [Fenamidone],57.8 ± 2.2,79.4 ± 2.9,60.6 ± 12,
c1ccc2[nH]ccc2c1 [Indole],8.76 ± 5.2,52.5 ± 14,,
CC#Cc1cc(C)nc(Nc2ccccc2)n1 [Mepanipyrim],,70.7 ± 2.9,,
CNC(=O)Oc1cc(C)c(S(C)(=O)=O)c(C)c1 [Methiocarb-sulfone],19.9 ± 1.6,,0.129 ± 0.019,
"CC(C)CC(C)Nc1ccc(Nc2ccccc2)cc1 (configuration not stated) [N-(1,3-Dimethylbutyl)-N'-phenyl-1,4-phenylenediamine]",1.42 ± 1.6,,,
O=C(CC(C(=O)OC1CCCCC1)S(=O)(=O)O)OC1CCCCC1 (configuration not stated) [Dicyclohexyl-sulfosuccinate],44.3 ± 2.2,,57.7 ± 5.7,
COCCOCCOC [Diglyme],11.5 ± 3.1,,,
Cc1ccc(OS(=O)(=O)O)cc1 [p-Tolylsulfate],91 ± 13,,,
O=C(NCCc1ncc(C(F)(F)F)cc1Cl)c1ccccc1C(F)(F)F [Fluopyram],,67.8 ± 2.1,,
O=C(c1ccccc1)C1CCCCC1 [Cyclohexylphenylketone],9.88 ± 8.6,,,
"Oc1cc(Cl)c(Cl)c(Cl)c1 [3,4,5-Trichlorophenol]",45 ± 3.1,70.1 ± 3.9,58.9 ± 7.8,
COc1cc([N+](=O)[O-])ccc1O [4-Nitroguaiacol],39.5 ± 6.2,82.7 ± 14,45.3 ± 6.9,
CCCCCCCCCC[N+](C)(C)CCCCCCCCCC [Didecyldimethylammonium],67.1 ± 21,,,
CCCNC(=O)NS(=O)(=O)c1ccc(Cl)cc1 [Chlorpropamide],47.5 ± 3.5,76.8 ± 4.6,55.3 ± 5,

Compound,chemical recovery [1] [%],chemical recovery [2] [%],chemical recovery [3] [%],chemical recovery [4] [%]
c1ccc2c(c1)[nH]c1ccncc12 [5-Carboline],34.1 ± 2.7,72.4 ± 3.9,25.1 ± 5,31.2 ± 3.7
COc1cc2c(c(OC)c1OC)-c1ccc(OC)c(=O)cc1[C@@H](NC(C)=O)CC2 [Colchicine],45 ± 3.9,70 ± 2.5,48.5 ± 3.6,
COc1ccc2[nH]cc(CCNC(C)=O)c2c1 [Melatonin],41.7 ± 7.2,74.6 ± 2.9,37.8 ± 2.6,
"NC(=O)c1c(Cl)cccc1Cl [2,6-Dichlorobenzamide]",63.3 ± 4.5,,,
Cc1cc(=O)nc(C(C)C)[nH]1 [2-Isopropyl-6-methyl-pyrimidin-4-ol],34.6 ± 4,77.2 ± 3.2,45.2 ± 5.9,44.3 ± 8.5
CCNS(=O)(=O)C(F)(F)C(F)(F)C(F)(F)C(F)(F)C(F)(F)C(F)(F)C(F)(F)C(F)(F)F [N-Ethylperfluorooctane-sulfonamide],2.91 ± 0.86,,,
O=C1CCCCCCCCCCC1 [Cyclododecanone],4.5 ± 3.9,,,
CC(=O)CCc1ccc(O)cc1 [4-(4-Hydroxyphenyl)butan-2-one],60 ± 5.2,64.5 ± 4,64.8 ± 5.4,
CC(=O)c1c(C)c([N+](=O)[O-])c(C(C)(C)C)c([N+](=O)[O-])c1C [Musk ketone],1.17 ± 0.25,15.5 ± 3.3,,
CC(C)(C)c1cc([N+](=O)[O-])cc([N+](=O)[O-])c1O [Dinoterb],,,48.5 ± 5,
CN1COCN(Cc2cnc(Cl)s2)/C1=N\[N+](=O)[O-] [Thiamethoxam],50 ± 3.5,73 ± 2.7,55.7 ± 4.8,
c1ccc2c(c1)[nH]c1ncccc12 [Carboline],40.3 ± 2.9,72.2 ± 3.8,28 ± 5.2,
OC[C@@H](O)[C@@H](O)[C@H](O)[C@@H](O)CO [D-Glucitol],3.85 ± 1.9,,,
CCNC(=O)c1cccc(C)c1 [N-Ethyl-3-methylbenzamide],37.3 ± 0.9,57.5 ± 1,29.2 ± 9.2,
O=C(O)c1ccccc1Nc1cccc(C(F)(F)F)c1 [Flufenamic-acid],44.9 ± 11,51.1 ± 1.4,58 ± 5.7,
COc1ccc(C(=O)CC(=O)c2ccc(C(C)(C)C)cc2)cc1 [Avobenzone],8.77 ± 0.79,,,
"CCc1cc(Cc2cc(CC)cc(C(C)(C)C)c2O)c(O)c(C(C)(C)C)c1 [2,2'-Methylenebis(ethyl-6-tert-butylphenol)]",3.63 ± 3.5,64.9 ± 8.7,,
O=P(O)(OCCC(F)(F)C(F)(F)C(F)(F)C(F)(F)C(F)(F)C(F)(F)F)OCCC(F)(F)C(F)(F)C(F)(F)C(F)(F)C(F)(F)C(F)(F)F [6.2-Fluorotelomerphosphate-diester],7.04 ± 2.1,,,
"O=C(c1ccc(O)cc1O)c1ccc(O)cc1O [2,2',4,4'-Tetrahydroxybenzophenone]",51.4 ± 4.7,,50 ± 4.4,
Oc1ccc2c(c1)[nH]c1ccccc12 [2-Hydroxycarbazole],40.6 ± 5,,52.1 ± 4.4,
Cc1ccc2ccc3cccc4ccc1c2c34 [1-Methylpyrene],3.46 ± 0.94,34 ± 4,,
CC1(C)O[C@@H]2C[C@H]3[C@@H]4CCC5=CC(=O)C=C[C@]5(C)[C@@]4(F)[C@@H](O)C[C@]3(C)[C@]2(C(=O)CO)O1 [Triamcinolone acetonide],,,,47.3 ± 4.9
CCCCCCCCCCCCCC[N+](C)(C)C [Tetradecyltrimethylammonium],94.4 ± 29,,,

Compound,chemical recovery [1] [%],chemical recovery [2] [%],chemical recovery [3] [%],chemical recovery [4] [%]
O=C(Nc1ccc(F)cc1F)c1cccnc1Oc1cccc(C(F)(F)F)c1 [Diflufenican],31 ± 3.5,52.3 ± 4.8,,35.6 ± 6.6
O=C(O)c1cc(SSc2ccc([N+](=O)[O-])c(C(=O)O)c2)ccc1[N+](=O)[O-] [DTNB],,0.0596 ± 0.028,0.204 ± 0.051,
CCOC(=O)c1ccc(O)cc1 [Ethylparaben],45.3 ± 3,66.3 ± 2.4,56.1 ± 4,
CC(=O)N(CCN(C(C)=O)C(C)=O)C(C)=O [Tetraacetylethylenediamine],,,29.2 ± 6.4,
OC[C@H]1O[C@H](O[C@]2(CCl)O[C@H](CCl)[C@@H](O)[C@@H]2O)[C@H](O)[C@@H](O)[C@H]1Cl [Sucralose],21.6 ± 1.4,,23 ± 2.4,58.3 ± 3.9
Cl[C@H]1[C@H](Cl)[C@@H](Cl)[C@H](Cl)[C@@H](Cl)[C@H]1Cl [delta-HCH],,,,40.6 ± 13
Oc1ccc(C2(c3ccc(O)cc3)c3ccccc3-c3ccccc32)cc1 [Bisphenol-FL],34.3 ± 5.9,26.8 ± 4.5,,
"C[N+](C)(C)CC1CO1 (configuration not stated) [2,3-Epoxypropyltrimethylammonium]",0.76 ± 0.94,,0.728 ± 0.46,
O=S(=O)(O)CCNC1CCCCC1 [2-(Cyclohexylamino)-ethansulfonic-acid],2.37 ± 1.9,72.2 ± 2.7,0.697 ± 0.13,
CCOP(=S)(OCC)Oc1nc(Cl)c(Cl)cc1Cl [Chlorpyrifos],,,,33.3 ± 7.2
NCCc1ccccc1 [Phenethylamine],6.63 ± 4.2,47.1 ± 1.7,,
Cn1cc(C(=O)Nc2ccccc2-c2cc(F)c(F)c(F)c2)c(C(F)F)n1 [Fluxapyroxad],65 ± 3,79.9 ± 1.2,69.6 ± 10,
CCCN(CCC)CCC [Tripropylamine],7.35 ± 6.9,2.09 ± 3.1,,
O=S(=O)(O)CCC(F)(F)C(F)(F)C(F)(F)C(F)(F)C(F)(F)C(F)(F)F [6.2 fluorotelomer sulfonic acid],35.9 ± 1.7,75.6 ± 2.9,,43.1 ± 5
C#CCN1C(=O)COc2cc(F)c(N3C(=O)C4=C(CCCC4)C3=O)cc21 [Flumioxazin],40.9 ± 0.44,5.96 ± 5.2,47.2 ± 4.8,38.5 ± 7.6
COc1nc(C)nc(NC(=O)NS(=O)(=O)c2ccccc2Cl)n1 [Chlorosulfuron],,67.9 ± 3.4,,
"Oc1c(Br)cc(Br)cc1Br [2,4,6-Tribromophenol]",35 ± 8.7,55.2 ± 4.1,46.9 ± 0.63,
O=C1CN(/N=C/c2ccc([N+](=O)[O-])o2)C(=O)N1 [Nitrofurantoin],,,,54.8 ± 8.6
CC[C@H](C)[C@H]1O[C@]2(CC[C@@H]1C)C[C@@H]1C[C@@H](C/C=C(\C)[C@@H](O[C@H]3C[C@H](OC)[C@@H](O[C@H]4C[C@H](OC)[C@@H](O)[C@H](C)O4)[C@H](C)O3)[C@@H](C)/C=C/C=C3\CO[C@@H]4[C@H](O)C(C)=C[C@@H](C(=O)O1)[C@]34O)O2 [Ivermectin-B1a],11.5 ± 2.3,30.3 ± 2.3,,
Nc1c(Br)cc(Br)cc1CN[C@H]1CC[C@H](O)CC1 [Ambroxol],37.1 ± 7.2,,5.97 ± 0.52,29.4 ± 6.9
CC(C)C[C@H](CN)CC(=O)O [Pregabalin],8.64 ± 5.9,66 ± 7.2,,
CC(C)c1cc(C(C)(C)c2ccc(O)c(C(C)C)c2)ccc1O [Bisphenol-G],8.379 ± 0.058,39.5 ± 3.7,,
c1ccc(COc2ccc3ccccc3c2)cc1 [Benzyl-2-naphthylether],0.473 ± 0.12,24.2 ± 0.93,,
